Laboratory results from ChEMBL document CHEMBL1140846, “Convenient QSAR model for predicting the complexation of structurally diverse compounds with beta-cyclodextrins” (Bioorg Med Chem, 2009).

Test: Binding affinity to beta cyclodextrin

| SMILES | log Ks |
| --- | --- |
| CCCCCc1ccc(O)cc1 | 4.19 |
| CCC(C)(C)c1ccc(O)cc1 | 4.7 |
| O=C(O)CC12CC3CC(CC(C3)C1)C2 | 4.32 |
| CCCCc1ccc(OC(C)=O)cc1 | 3.62 |
| Cc1ccc(/C=C/C(=O)O)cc1 | 2.65 |
| CC(=O)Oc1cccc(C(C)C)c1 | 3.36 |
| OC[C@H](O)COCc1ccccc1 | 2.11 |
| CC(=O)Oc1cccc(CC(C)C)c1 | 3.83 |
| c1ccc2c(c1)Sc1ccccc1S2 | 3.57 |
| CC(=O)Oc1ccc(C(C)(C)C)cc1 | 3.85 |
| CCCCc1cccc(OC(C)=O)c1 | 3.66 |
| O=C(O)/C=C/c1cccc(O)c1 | 2.56 |
| OCCCO [1,3-PROPANEDIOL] | 0.67 |
| OCCCCO [1,4-BUTANEDIOL] | 0.64 |
| OCCCCCO [1,5-PENTANEDIOL] | 1.22 |
| OCCCCCCO [1,6-HEXANEDIOL] | 1.69 |
| CCCCCCCO [1-HEPTANOL] | 2.85 |
| CCCCCO [1-PENTANOL] | 1.8 |
| CCOc1cccc(O)c1 [1-hydroxy-3-ethoxybenzene] | 2.35 |
| COc1cccc(O)c1 [1-hydroxy-3-methoxybenzene] | 2.11 |
| CCOc1ccc(O)cc1 [1-hydroxy-4-ethoxybenzene] | 2.33 |
| CCCCC(C)O (configuration not stated) [2-HEXANOL] | 1.98 |
| COCCO [2-METHOXYETHANOL] | 0.22 |
| CCCC(C)O (configuration not stated) [2-PENTANOL] | 1.49 |
| CC(C)CCO [3-METHYLBUTANOL] | 2.25 |
| CCC(O)CC [3-PENTANOL] | 1.35 |

| SMILES | log Ks |
| --- | --- |
| CC(=O)c1ccc(O)cc1 [4-HYDROXYACETOPHENONE] | 2.18 |
| O=Cc1ccc(O)cc1 [4-HYDROXYBENZALDEHYDE] | 1.75 |
| Nc1ccc([N+](=O)[O-])cc1 [4-NITROANILINE] | 2.48 |
| O=C(O)c1ccc([N+](=O)[O-])cc1 [4-NITROBENZOIC ACID] | 2.34 |
| CC(=O)Oc1ccc([N+](=O)[O-])cc1 [4-NITROPHENYL ACETATE] | 2.13 |
| ClCc1ccccc1 [(CHLOROMETHYL)BENZENE] | 2.45 |
| CC(=O)Nc1ccccc1 [ACETANILIDE] | 2.2 |
| CC(=O)c1ccc(S(=O)(=O)NC(=O)NC2CCCCC2)cc1 [ACETOHEXAMIDE] | 2.94 |
| CC(C)=O [ACETONE] | 0.42 |
| CC#N [ACETONITRILE] | -0.27 |
| CC(=O)c1ccccc1 [ACETOPHENONE] | 2.27 |
| c1ccc2nc3ccccc3cc2c1 [ACRIDINE] | 2.33 |
| C=CCC1(CC=C)C(=O)NC(=O)NC1=O [ALLOBARBITAL] | 1.98 |
| CCC1(CCC(C)C)C(=O)NC(=O)NC1=O [AMOBARBITAL] | 3.07 |
| CCC(C)(C)O [AMYLENE HYDRATE] | 1.91 |
| Nc1ccccc1 [ANILINE] | 1.6 |
| COc1ccccc1 [ANISOLE] | 2.32 |
| CCC1(CC)C(=O)NC(=O)NC1=O [BARBITAL] | 1.78 |
| NS(=O)(=O)c1cc2c(cc1C(F)(F)F)NC(Cc1ccccc1)NS2(=O)=O (configuration not stated) [BENDROFLUMETHIAZIDE] | 1.9 |
| O=Cc1ccccc1 [BENZALDEHYDE] | 1.78 |
| c1ccccc1 [BENZENE] | 2.23 |
| Nc1ccc(-c2ccc(N)cc2)cc1 [BENZIDINE] | 3.35 |
| CCOC(=O)c1ccc(N)cc1 [BENZOCAINE] | 2.69 |
| O=C(O)c1ccccc1 [BENZOIC ACID] | 2.12 |
| N#Cc1ccccc1 [BENZONITRILE] | 2.23 |
| c1ccc2sccc2c1 [BENZOTHIOPHENE] | 3.23 |

| SMILES | log Ks |
| --- | --- |
| c1ccc2scnc2c1 [BENZO[D]THIAZOLE] | 2.38 |
| OCc1ccccc1 [BENZYL ALCOHOL] | 1.71 |
| c1ccc(Cn2ccnc2)cc1 [BENZYLIMIDAZOLE] | 2.61 |
| C[C@H]1C[C@H]2[C@@H]3CCC4=CC(=O)C=C[C@]4(C)[C@@]3(F)[C@@H](O)C[C@]2(C)[C@@]1(O)C(=O)CO [BETAMETHASONE] | 3.73 |
| Brc1ccccc1 [BROMOBENZENE] | 2.5 |
| CCCCOC(=O)c1ccc(N)cc1 [BUTAMBEN] | 3.19 |
| CCC(C)O (configuration not stated) [BUTANOL] | 1.19 |
| CCCCOC(=O)c1ccc(O)cc1 [BUTYLPARABEN] | 3.39 |
| c1ccc2c(c1)[nH]c1ccccc12 [CARBAZOLE] | 2.44 |
| ClC(Cl)(Cl)Cl [CARBON TETRACHLORIDE] | 2.2 |
| CCCCNC(=O)NS(=O)(=O)c1ccc(N)cc1 [CARBUTAMIDE] | 2.29 |
| C[C@H](CCC(=O)O)[C@H]1CC[C@H]2[C@@H]3[C@H](O)C[C@@H]4C[C@H](O)CC[C@]4(C)[C@H]3CC[C@]12C [CHENODIOL] | 4.36 |
| ClC(Cl)Cl [CHLOROFORM] | 1.43 |
| C[C@H](CCC(=O)O)[C@H]1CC[C@H]2[C@@H]3[C@H](O)C[C@@H]4C[C@H](O)CC[C@]4(C)[C@H]3C[C@H](O)[C@]12C [CHOLIC ACID] | 3.5 |
| C(=C\c1ccccc1)/CN1CCN(C(c2ccccc2)c2ccccc2)CC1 [CINNARIZINE] | 3.64 |
| C[C@]12C[C@H](O)[C@H]3[C@@H](CCC4=CC(=O)CC[C@@]43C)[C@@H]1CC[C@@H]2C(=O)CO [CORTICOSTERONE] | 3.85 |
| CC(=O)OCC(=O)[C@@]1(O)CC[C@H]2[C@@H]3CCC4=CC(=O)CC[C@]4(C)[C@H]3C(=O)C[C@@]21C [CORTISONE ACETATE] | 3.62 |
| C[C@]12CCC(=O)C=C1CC[C@@H]1[C@@H]2C(=O)C[C@@]2(C)[C@H]1CC[C@]2(O)C(=O)CO [CORTISONE] | 3.35 |
| O=C(O)/C=C/c1ccc(O)cc1 [COUMARIC ACID] | 2.83 |
| CCC1(C2=CCCCC2)C(=O)NC(=O)NC1=O [CYCLOBARBITAL] | 2.71 |
| OC1CCC1 [CYCLOBUTANOL] | 1.18 |
| OC1CCCCCC1 [CYCLOHEPTANOL] | 3.23 |
| OC1CCCCC1 [CYCLOHEXANOL] | 2.67 |
| OC1CCCCCCC1 [CYCLOOCTANOL] | 3.3 |
| OC1CCCC1 [CYCLOPENTANOL] | 2.08 |
